Experimental data as given in patent US20220378923A1, “BET DEGRADER” (KYOWA KIRIN CO., LTD., priority 2019, published 2022).

test system: SU-DHL-4 cells; assay: Inhibitory effect on cell viability in SU-DHL-4 cell line (Test Example 1); format: cell-based, human; conditions: Homo sapiens; SU-DHL-4 cells, 72 hours, Cell Counting Kit-8; concentration showing 90% inhibition of cell viability; read-out: SU-DHL-4 Cell Viability Inhibition Rate IC90
Procedure: SU-DHL-4 cells (Code No. ACC 495, Deutsche Sammlung von Mikroorganismen and Zellkulturen GmbH; DSMZ) were cultured at 37° C. using a carbon dioxide incubator (95% air, 5% CO2) in RPMI1640 medium (Code No. 11875-093, Thermo Fisher Scientific) in which inactivated fetal bovine serum (FBS: Code No. 10099-148, Thermo Fisher Scientific) in an amount to give a final concentration of 10 vol % and penicillin/streptomycin solution (PS: […] The cells were passaged twice a week at a volume of 20-40 mL so as to maintain a cell concentration of 1×10^6 cells/mL or less. […] After seeding, the cells were precultured at 37° C. in a carbon dioxide gas incubator for 18 to 25 hours. […] At this time, the final concentration of DMSO was adjusted to be 0.1 vol %. After adding the test compound, the cells were cultured at 37° C. in a carbon dioxide gas incubator for 72 hours. Next, 0.020 mL of Cell Counting Kit-8 (Code No. CK04, DOJINDO) solution diluted 2-fold or 4-fold with phosphate buffered saline (PBS) was added to each well. Color reaction was carried out in a carbon dioxide gas incubator at 37° C. for 2 to 3 hours, and the absorbance at a wavelength of 450 nm was measured using SpectraMax 340PC (Molecular Devices). […] Absorbance of a well containing test compound • B: Absorbance of a well without addition of cells • C: Absorbance of a well without addition of test compound

IC90 [nM]	Compound
0.13	CCC(=O)N1c2ccccc2[C@H](Nc2ccc(NC(=O)CNC(=O)Nc3ccc(N[C@@H]4C[C@H](C)N(C(=O)CC)c5ccccc54)cc3)cc2)C[C@@H]1C (relative stereo) [Compound 6j, N-(4-(((2S*,4R*)-2-Methyl-1-propionyl-1,2,3,4-tetrahydroquinolin-4-yl)amino)phenyl)-2-(3-(4-(((2S*,4R*)-2-methyl-1-propionyl-1,2,3,4-tetrahydroquinolin-4-yl)amino)phenyl)ureido)acetamide]

same assay, conditions: SU-DHL-4 cells, 72 hours, Cell Counting Kit-8; concentration showing 90% inhibition of cell viability; read-out: SU-DHL-4 Cell Viability Inhibition Rate IC90

IC90 [nM]	Compound
38	CCC(=O)N1c2ccccc2[C@H](Nc2ccc(C(=O)NCCCNC(=O)c3ccc(C(O)c4cc(O)cc(-c5c(C)noc5C)c4)cc3)cc2)C[C@@H]1C (relative stereo) [Compound 1d, 4-{[3-(3,5-Dimethylisoxazol-4-yl)-5-hydroxyphenyl](hydroxy)methyl}-N-[3-(4-{[(2S*,4R*)-2-methyl-1-propionyl-1,2,3,4-tetrahydroquinolin-4-yl]amino}benzamide)propyl]benzamide]
39.8	CCC(=O)N1c2ccccc2[C@H](Nc2ccc(C(=O)NCCCNC(=O)c3ccc(Cn4c(CC)cc5c4CCCC5=O)cc3)cc2)C[C@@H]1C (relative stereo) [Compound 1e, 4-[(2-Ethyl-4-oxo-4,5,6,7-tetrahydro-1H-indol-1-yl)methyl]-N-[3-(4-{[(2S*,4R*)-2-methyl-1-propionyl-1,2,3,4-tetrahydroquinolin-4-yl]amino}benzamide)propyl]benzamide]
4.78	CCC(=O)N1c2ccccc2[C@H](Nc2ccc(C(=O)NCCCNC(=O)c3ccc(C4=NCc5nnc(C)n5-c5sc(C)c(C)c54)cc3)cc2)C[C@@H]1C (relative stereo) [Compound 1f, 4-{[(2S*,4R*)-2-Methyl-1-propionyl-1,2,3,4-tetrahydroquinolin-4-yl]amino}-N-{3-[4-(2,3,9-trimethyl-6H-thieno[3,2-f][1,2,4]triazolo[4,3-a][1,4]diazepin-4-yl)benzamide]propyl}benzamide]
0.36	CCC(=O)N1c2ccccc2[C@H](Nc2ccc(NC(=O)c3cccc(NC(=O)c4ccc(N[C@@H]5C[C@H](C)N(C(=O)CC)c6ccccc65)cc4)c3)cc2)C[C@@H]1C (relative stereo) [Compound 2j, 3-(4-{[(2S,4R)-2-Methyl-1-propionyl-1,2,3,4-tetrahydroquinolin-4-yl]amino}benzamide)-N-(4-{[(2S*,4R*)-2-methyl-1-propionyl-1,2,3,4-tetrahydroquinolin-4-yl]amino}phenyl)benzamide]
1.51	CCC(=O)N1c2ccccc2[C@H](Nc2ccc(-c3cn4c(n3)CN(C(=O)C3CCC(N[C@@H]5C[C@H](C)N(C(=O)CC)c6ccccc65)CC3)CC4)cc2)C[C@@H]1C (relative stereo) [Compound 7b, 1-((2S*,4R*)-2-Methyl-4-(((1R,4r)-4-(2-(4-(((2S,4R)-2-methyl-1-propionyl-1,2,3,4-tetrahydroquinolin-4-yl)amino)phenyl)-5,6,7,8-tetrahydroimidazo[1,2-a]pyrazine-7-carbonyl)cyclohexyl)amino)-3,4-dihydroquinolin-1(2H)-yl)propan-1-one]
25.9	CCC(=O)N1c2ccccc2[C@H](Nc2ccc(NC(=O)CNC(=S)OC3CCC(N[C@@H]4C[C@H](C)N(C(=O)CC)c5ccccc54)CC3)cc2)C[C@@H]1C (relative stereo) [Compound 7d, 0-((1R,4R)-4-(((2S*,4R*)-2-Methyl-1-propionyl-1,2,3,4-tetrahydroquinolin-4-yl)amino)cyclohexyl)(2-((4-(((2S,4R)-2-methyl-1-propionyl-1,2,3,4-tetrahydroquinolin-4-yl)amino)phenyl)amino)-2-oxoethyl)carbamothioate]
20.4	CCC(=O)N1c2ccccc2[C@H](Nc2ccc(NC(=O)CNC(=O)O[C@H]3CC[C@H](N[C@@H]4C[C@H](C)N(C(=O)CC)c5ccccc54)CC3)cc2)C[C@@H]1C (relative stereo) [Compound 7e, (1R,4R)-4-(((2S*,4R*)-2-Methyl-1-propionyl-1,2,3,4-tetrahydroquinolin-4-yl)amino)cyclohexyl (2-((4-(((2S,4R)-2-methyl-1-propionyl-1,2,3,4-tetrahydroquinolin-4-yl)amino)phenyl)amino)-2-oxoethyl)carbamate]
0.33	CCC(=O)N1c2ccccc2[C@H](Nc2ccc(C(=O)c3cnc4n3CCN(C(=O)C3CCC(N[C@@H]5C[C@H](C)N(C(=O)CC)c6ccccc65)CC3)C4)cc2)C[C@@H]1C (relative stereo) [Compound 7i, 1-((2S*,4R*)-2-Methyl-4-(((1r,4R)-4-(3-(4-(((2S,4R)-2-methyl-1-propionyl-1,2,3,4-tetrahydroquinolin-4-yl)amino)benzoyl)-5,6,7,8-tetrahydroimidazo[1,2-a]pyrazine-7-carbonyl)cyclohexyl)amino)-3,4-dihydroquinolin-1(2H)-yl)propan-1-one]
0.62	CCC(=O)N1c2ccccc2[C@H](Nc2ccc(NC(=O)CNC(=O)C3CCC(N[C@@H]4C[C@H](C)N(C(=O)CC)c5ccccc54)CC3)cc2)C[C@@H]1C (relative stereo) [Compound 7k, (1R,4R)-4-(((2S*,4R*)-2-Methyl-1-propionyl-1,2,3,4-tetrahydroquinolin-4-yl)amino)-N-(2-((4-(((2S,4R)-2-methyl-1-propionyl-1,2,3,4-tetrahydroquinolin-4-yl)amino)phenyl)amino)-2-oxoethyl)cyclohexane-1-carboxamide]
0.28	CCC(=O)N1c2ccccc2[C@H](Nc2ccc(Cc3cnc4n3CCN(C(=O)C3CCC(N[C@@H]5C[C@H](C)N(C(=O)CC)c6ccccc65)CC3)C4)cc2)C[C@@H]1C (relative stereo) [Compound 7l, 1-((2S*,4R*)-2-Methyl-4-(((1r,4R)-4-(3-(4-(((2S,4R)-2-methyl-1-propionyl-1,2,3,4-tetrahydroquinolin-4-yl)amino)benzyl)-5,6,7,8-tetrahydroimidazo[1,2-a]pyrazine-7-carbonyl)cyclohexyl)amino)-3,4-dihydroquinolin-1(2H)-yl)propan-1-one]
20.3	CCC(=O)N1c2ccccc2[C@H](Nc2ccc(C(=O)NCCCNC(=O)C3CCC(N[C@@H]4C[C@H](C)N(C(=O)CC)c5ccccc54)CC3)cc2)C[C@@H]1C (relative stereo) [Compound 7m, 4-(((2S,4R)-2-Methyl-1-propionyl-1,2,3,4-tetrahydroquinolin-4-yl)amino)-N-(3-((1R,4r)-4-(((2S*,4R*)-2-methyl-1-propionyl-1,2,3,4-tetrahydroquinolin-4-yl)amino)cyclohexane-1-carboxamide)propyl)benzamide]
13.9	CCC(=O)N1c2ccccc2[C@H](Nc2ccc(C(=O)NC3CN(C(=O)C4CCC(N[C@@H]5C[C@H](C)N(C(=O)CC)c6ccccc65)CC4)C3)cc2)C[C@@H]1C (relative stereo) [Compound 7n, 4-(((2S,4R)-2-Methyl-1-propionyl-1,2,3,4-tetrahydroquinolin-4-yl)amino)-N-(1-((1R,4R)-4-(((2S*,4R*)-2-methyl-1-propionyl-1,2,3,4-tetrahydroquinolin-4-yl)amino)cyclohexane-1-carbonyl)azetidin-3-yl)benzamide]
0.38	CCC(=O)N1c2ccccc2[C@H](Nc2ccc(C(=O)NCC(=O)CNC(=O)C3CCC(N[C@@H]4C[C@H](C)N(C(=O)CC)c5ccccc54)CC3)cc2)C[C@@H]1C (relative stereo) [Compound 7r, 4-(((2S,4R)-2-Methyl-1-propionyl-1,2,3,4-tetrahydroquinolin-4-yl)amino)-N-(3-((1R,4r)-4-(((2S*,4R*)-2-methyl-1-propionyl-1,2,3,4-tetrahydroquinolin-4-yl)amino)cyclohexane-1-carboxamide)-2-oxopropyl)benzamide]
0.2	CCC(=O)N1c2ccccc2[C@H](Nc2ccc(-c3ccc(CNC(=O)C4CCC(N[C@@H]5C[C@H](C)N(C(=O)CC)c6ccccc65)CC4)s3)cc2)C[C@@H]1C (relative stereo) [Compound 8e, (1R,4R)-4-(((2S*,4R*)-2-Methyl-1-propionyl-1,2,3,4-tetrahydroquinolin-4-yl)amino)-N-((5-(4-(((2S,4R)-2-methyl-1-propionyl-1,2,3,4-tetrahydroquinolin-4-yl)amino)phenyl)thiophen-2-yl)methyl)cyclohexane-1-carboxamide]

Compound	IC90 [nM]
CCC(=O)N1c2ccccc2[C@H](Nc2ccc(-c3cnn(C4CCN(C(=O)C5CCC(N[C@@H]6C[C@H](C)N(C(=O)CC)c7ccccc76)CC5)CC4)c3)cc2)C[C@@H]1C (relative stereo) [Compound 8d, 1-((2S*,4R*)-2-Methyl-4-(((1r,4R)-4-(4-(4-(4-(((2S,4R)-2-methyl-1-propionyl-1,2,3,4-tetrahydroquinolin-4-yl)amino)phenyl)-1H-pyrazol-1-yl)piperidine-1-carbonyl)cyclohexyl)amino)-3,4-dihydroquinolin-1(2H)-yl)propan-1-one]	0.14
